From patent publication US20110288036A1, “Methods for Treating or Preventing Vascular Graft Failure” (priority 2010, published 2011)
Entries after “also recorded” stand apart in the source; their conditions may differ.

Experiments:
[1] = system: human coronary artery endothelial cells (HCAEC); experiment: IL-6 and IL-8 ELISA in TNF-α-stimulated HCAEC; format: cell-based; settings: 0.5 mM, 24 hours after 6 hour TNF-α
Procedure: Primary human coronary artery endothelial cells (HCAEC) were cultured and seeded onto a 96-well plate, using methods described in the MTS proliferation assay above. Cells were again stimulated with 20 ng/ml of TNF-α for 6 hours and then treated with MMI-0100 (SEQ ID NO: 1) for approximately 24 hours. Supernatants were then collected and analyzed for drug effect on inflammatory cytokines.
IL-6 (Cat #: 900-K16; Lot #: 0909016) and IL-8 (Cat #: 900-K18; Lot #: 0209018) ELISA kits (Peprotech; Rocky Hill, N.J.) were used to measure levels of these cytokines from HCAEC supernatants following treatment with MMI-0100 ([…]; SEQ ID NO: 1). The Human IL-6 ELISA development kit contains the key components required for the quantitative measurement of natural and/or recombinant hIL-6 in a sandwich ELISA format within the range of 32-2000 pg/ml. Human IL-8 ELISA development kit contains the key components required for the quantitative measurement of natural and/or recombinant hIL-8 in a sandwich ELISA format within the range of 16-1000 pg/ml. […]
Briefly, 10 μl of supernatant was diluted with 90 μl of diluents; 3 replicates of each sample were used. Data were collected at 405 nm with correction at 650 nm on a plate reader. Each plate was monitored for 1 hour with readings taken every 5 minutes. Concentrations of IL-6 and IL-8 in test samples were determined by extrapolating from a standard curve. […]

[2] = system: human endothelial cell (EC); experiment: MTS cell proliferation assay, endothelial cells; format: cell-based; settings: pre-treatment 20 ng/ml TNF-α
Procedure: Primary human aortic endothelial cells (HAEC) and primary human aortic smooth muscle cells (HASMC) were obtained from Invitrogen; primary human coronary artery endothelial cells (HCAEC) were obtained from Lonza.
All cultures were maintained in 25 cm^2 polystyrene tissue culture flasks in a 37° C., 5% CO2/95% air environment, with cell culture media refreshed every other day. All cells were seeded at a density of 20,000˜30,000 cells/cm^2, as required by the specific experiment, and allowed to grow to 80-90% confluence before being harvested/passaged. Only cells from early passages (numbers 2-8) were utilized in experiments.
The CellTiter 96® AQueous Non-Radioactive Cell Proliferation Assay (Promega) was used to assess drug effects on cell proliferation according to the manufacturer's instructions. Briefly, HAECs and HASMCs from early passages were grown to 80-90% confluence in 25 cm^2 tissue culture flasks in a 37° C./5% CO2 incubator prior to harvest. 200 μl of each type of cell suspension (at 20,000 cells/cm^2) was seeded onto separate 96-well plates to yield an approximate 60% confluence per well. Cells were allowed to adhere to the plate surface overnight, followed by addition of 20 ng/ml of TNF-α to stimulate production of inflammatory agents. After a 4-6 hour incubation period, MMI-0100 peptide drug ([…]; SEQ ID NO: 1) was added and cells incubated for another 20-24 hours. Each well was then supplemented with 100 μl of fresh medium and 20 μl of CellTiter 96® AQueous One Solution Reagent and incubated for an additional 1.5-2 hours prior to measuring absorbance of each well at 490 nm with a SoftMax®-equipped plate reader.
In order to determine the effect of pharmacological doses of MMI-0100 ([…]; SEQ ID NO: 1) on human endothelial cell (EC) and smooth muscle cell (SMC) proliferation, human EC and SMC cultures were treated with three concentrations (0.25 mM, 0.5 mM, and 1 mM) of MMI-0100 ([…] (SEQ ID NO: 1)) following pre-treatment with TNF-α.

MKK4 = molecular target: T1, MKK4 (Mus musculus, UniProt P47809); experiment: MKK4 radiometric kinase assay; format: biochemical; settings: peptide 100 μM
T1 construct: purchased Millipore (KinaseProfiler service)
T1 sequence (P47809 whole entry): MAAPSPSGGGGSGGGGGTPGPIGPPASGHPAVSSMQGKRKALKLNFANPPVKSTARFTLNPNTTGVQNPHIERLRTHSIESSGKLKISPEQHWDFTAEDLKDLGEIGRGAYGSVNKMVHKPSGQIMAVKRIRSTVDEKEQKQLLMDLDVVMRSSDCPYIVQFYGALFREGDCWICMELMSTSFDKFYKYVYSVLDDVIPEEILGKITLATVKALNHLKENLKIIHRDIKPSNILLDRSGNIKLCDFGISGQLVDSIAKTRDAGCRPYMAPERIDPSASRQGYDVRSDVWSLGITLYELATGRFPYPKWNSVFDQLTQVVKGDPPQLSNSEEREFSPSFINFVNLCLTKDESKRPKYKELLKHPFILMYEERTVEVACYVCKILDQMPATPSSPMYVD
Excerpt: A commercial radiometric assay service was used to test the specificity and potency of MMI-0100 ([…]; SEQ ID NO: 1) by measuring its half maximal inhibitory concentrations (IC50). This quantitative assay measures how much MK2 inhibitor (MMI-0100; […] (SEQ ID NO: 1)) is needed to inhibit 50% of a given biological process or component of a process (i.e., an enzyme, cell, or cell receptor). Specifically, in these assays, a positively charged substrate is phosphorylated with a radiolabeled phosphate group from an ATP if the kinase is not inhibited by an inhibitor peptide. The positively charged substrate then is attracted to a negatively charged filter membrane, quantified with a scintillation counter, and compared to a 100% activity control. ATP concentrations within 15 μM of the apparent Km for ATP were chosen since an ATP concentration near the Km may allow for the kinases to have the same relative amount of phosphorylation activity. The individual conditions for each radiometric assay are as follows.
The reaction was initiated by the addition of the MgATP. After incubation for 40 minutes at room temperature, 5 μl of the incubation mix was used to initiate the JNK radiometric assay described above.
IC50 values for inhibitor peptides were determined using Millipore's IC50 Profiler Express service. The IC50 value was estimated from a 10-point curve of one-half log dilutions. […]

## YARAAARQARAKALARQLGVAA [MMI-0100]
[1]
  TNF-α-induced IL-6 expression: reduced the level of TNF-α-induced IL-6 expression to that of the untreated control
  TNF-α-induced IL-8 expression: did not affect the level of TNF-α-induced IL-8 expression; also recorded: no effect
[2]; 0.25 mM
  EC proliferation vs TNF-α alone control: slightly increased cell proliferation
[2]; 0.5 mM
  increase in EC proliferation vs TNF-α alone control: 30%
[2]; 1 mM
  increase in EC proliferation vs TNF-α alone control: 11%
MKK4
  Percent Activity, MKK4: 90%
